According to the NIST ThermoML archive (doi:10.1016/j.jct.2013.01.010):

Columns and labels:
[1] = excess molar enthalpy (molar enthalpy of mixing); xn = mol fraction of the nth substance listed; details: 298.15 K, 101 kPa, Liquid, 2-Drop Calorimetry
[2] = xn = mol fraction of the nth substance listed; details: 101 kPa, Liquid; for speed of sound: Sing-around technique in a fixed-path interferometer; for mass density: Vibrating tube method

CCn1cc[n+](C)c1.F[B-](F)(F)F [1-ethyl-3-methylimidazolium tetrafluoroborate] + CC(C)=O
[1]
Details	excess molar enthalpy [kcal/mol]
x1 = 0.0987	-0.0136
x1 = 0.1451	-0.0198
x1 = 0.1991	-0.0272
x1 = 0.2547	-0.0339
x1 = 0.3012	-0.038
x1 = 0.3428	-0.0423
x1 = 0.3984	-0.0461
x1 = 0.4425	-0.0483
x1 = 0.4851	-0.0497
x1 = 0.5335	-0.0502
x1 = 0.6021	-0.048
x1 = 0.6689	-0.0454
x1 = 0.7148	-0.0418
x1 = 0.7723	-0.0359
x1 = 0.8227	-0.0289
x1 = 0.8769	-0.0213
x1 = 0.9012	-0.0174
x1 = 0.9113	-0.016

[2]
Details	mass density, 293.15 K [kg/m3]	mass density, 298.15 K [kg/m3]	mass density, 303.15 K [kg/m3]	mass density, 308.15 K [kg/m3]	speed of sound, 293.15 K [m/s]	speed of sound, 298.15 K [m/s]	speed of sound, 303.15 K [m/s]	speed of sound, 308.15 K [m/s]
x1 = 0.1214	933.27	928.61	923.44	918.15	1241.1	1221	1193.4	1172.8
x1 = 0.1789	987.63	983.61	978.74	973.95	1280.4	1261.7	1233.4	1211.1
x1 = 0.2147	1017.82	1013.85	1009.37	1004.85	1307.6	1290.7	1262.9	1238.4
x1 = 0.2813	1066.88	1063.3	1059.25	1055.19	1360.4	1349.9	1321.9	1295.2
x1 = 0.3219	1092.73	1089.56	1085.84	1082.01	1394.1	1386.6	1358.3	1331
x1 = 0.3649	1117.49	1114.19	1110.78	1107.15	1429.2	1423.4	1398.5	1367.9
x1 = 0.4193	1144.91	1141.69	1138.75	1135.16	1473.1	1469.1	1449.6	1417.4
x1 = 0.4714	1167.62	1164.64	1161.69	1158.46	1507.7	1510.2	1490.7	1458.4
x1 = 0.5217	1186.9	1183.85	1181.07	1177.84	1539.7	1539.6	1526.3	1498
x1 = 0.5772	1205.54	1202.14	1199.7	1196.16	1566	1566.1	1559.2	1531
x1 = 0.6319	1221.27	1217.91	1215.28	1211.72	1583	1585.4	1579.8	1558.2
x1 = 0.6768	1232.69	1229.09	1226.6	1222.91	1593.5	1591.6	1587.6	1574.7
x1 = 0.7199	1242.54	1238.8	1236.06	1232.31	1601.6	1596.9	1594	1587.8
x1 = 0.7724	1252.97	1249.12	1246.25	1242.25	1604.7	1595.8	1592.9	1595.8
x1 = 0.8304	1263	1258.91	1255.95	1251.74	1607.5	1595.9	1591.6	1597.6
x1 = 0.8766	1269.84	1265.74	1262.51	1258.3	1610	1595.9	1589.9	1597.6
x1 = 0.9011	1273.08	1268.96	1265.71	1261.43	1612.6	1596.6	1589.4	1597.9
x1 = 0.9203	1275.47	1271.38	1267.99	1263.7	1614.6	1599	1591	1597.3

CCn1cc[n+](C)c1.F[B-](F)(F)F [1-ethyl-3-methylimidazolium tetrafluoroborate] + C[S+](C)[O-]
[1]
Details	excess molar enthalpy [kcal/mol]
x1 = 0.1116	-0.104
x1 = 0.1785	-0.159
x1 = 0.2157	-0.192
x1 = 0.2854	-0.233
x1 = 0.3259	-0.256
x1 = 0.3981	-0.281
x1 = 0.4368	-0.285
x1 = 0.4852	-0.29
x1 = 0.5111	-0.291
x1 = 0.5729	-0.281
x1 = 0.6255	-0.26
x1 = 0.6899	-0.232
x1 = 0.7365	-0.208
x1 = 0.7943	-0.168
x1 = 0.8338	-0.137
x1 = 0.8896	-0.0906
x1 = 0.9012	-0.0839
x1 = 0.9258	-0.0619

[2]
Details	mass density, 293.15 K [kg/m3]	mass density, 298.15 K [kg/m3]	mass density, 303.15 K [kg/m3]	mass density, 308.15 K [kg/m3]	speed of sound, 293.15 K [m/s]	speed of sound, 298.15 K [m/s]	speed of sound, 303.15 K [m/s]	speed of sound, 308.15 K [m/s]
x1 = 0.1319	1154.13	1149.63	1145.2	1140.37	1533	1514.8	1498.7	1481.3
x1 = 0.1819	1170.55	1166.13	1161.81	1157.02	1544.4	1526.6	1510.3	1492.8
x1 = 0.2336	1185.68	1181.3	1177.06	1172.25	1556.2	1538.6	1522.2	1504.7
x1 = 0.2909	1200.5	1196.12	1191.89	1187.15	1567.8	1551	1535.1	1517.4
x1 = 0.3417	1212.05	1207.64	1203.45	1198.76	1577.3	1561.5	1545.4	1528.1
x1 = 0.3799	1219.83	1215.48	1211.24	1206.59	1584	1568.7	1552.3	1535.9
x1 = 0.4215	1227.57	1223.18	1219.02	1214.39	1589.9	1575.8	1559.5	1543.2
x1 = 0.4719	1236	1231.61	1227.4	1222.88	1596.3	1583.7	1567.7	1552
x1 = 0.5335	1244.97	1240.56	1236.44	1232.02	1602.8	1591.2	1575.8	1560.5
x1 = 0.5782	1250.68	1246.29	1242.17	1237.86	1606.2	1595.6	1580.4	1566.1
x1 = 0.6198	1255.44	1251.13	1247.04	1242.76	1608.8	1598.6	1584.3	1571
x1 = 0.6717	1260.78	1256.5	1252.45	1248.28	1611	1601.8	1588.6	1575.9
x1 = 0.7204	1265.23	1260.99	1257	1252.91	1613	1604.4	1591.7	1579.7
x1 = 0.7737	1269.58	1265.39	1261.48	1257.45	1614.7	1606.4	1594.6	1583.2
x1 = 0.8219	1273.1	1268.95	1265.1	1261.11	1616.4	1607.9	1596.8	1586
x1 = 0.8783	1276.82	1272.74	1268.97	1264.97	1619.2	1610.3	1599.7	1588.9
x1 = 0.9041	1278.42	1274.36	1270.62	1266.61	1621	1611.6	1601.1	1590.4
x1 = 0.9249	1279.65	1275.62	1271.9	1267.87	1622.6	1612.9	1602.2	1591.6
